Measured values as given in PMC5849182, “Kallikrein-related peptidase 7 is a potential target for the treatment of pancreatic cancer” (Oncotarget, 2018).

Columns and labels:
PANC-1 cells [1] = experiment: RTCA cell migration assay; assay type: cell-based; details: KLK7 silenced PANC-1 cells, compared to BC and NC groups
Experimental: (§1) Cell migration assay was performed on RTCA xCELLigence DP (ACEA Biosciences). […] Migration was measured as the relative cell index change measured by the microelectronic sensors integrated into the bottom side of the membrane. Measurements were recorded every 15 min for 36 h.
(§2) The tested compound was added into the cell culture medium 3 h after PANC-1 cells were seeded. The cell prolifiation, migration and matrigel invasion was then assayed on RTCA.

HepG2 cells = experiment: RTCA proliferation, migration and invasion of KLK7 silenced HepG2 cells; assay type: cell-based
Experimental: as §1
(§3) Cell matrigel invasion assay was similar to the cell migration assay, except that the microporous membrane between the upper and lower chambers was coated by a thin layer of matrigel (BD Biosciences). After 36 h, cells on the bottom side were fixed in cold methanol, stained with 0.4% crystal violet, and photographed (5 random fields for each sample).

KLK7 = KLK7 expression in lentivirus-infected PANC-1 cells (real-time PCR and western blotting); assay type: cell-based, human; details: PANC-1 cells stably infected, compared to NC group
Source text: A scrambled shRNA sequence was used as the negative control (LV-NC-shRNA, 5′-[…]-3′). The shRNA sequences were synthesized and cloned into recombinant shRNA expression vectors (pGLV3-H1-GFP-Puro). The resulted plasmids were verified by DNA sequencing.
PANC-1 and HepG2 cell lines were obtained from the Chinese Type Culture Collection Center (Wuhan, China). PANC-1 cells were maintained in dulbecco’s modified Eagle medium supplemented with 10% fetal bovine serum, 100 units/ml penicillin G sodium, and 100 μg/ml streptomycin sulphate. HepG2 cells were maintained in RPMI 1640 medium supplemented with 10% fetal bovine serum, 100 units/ml penicillin G sodium, and 100 μg/ml streptomycin sulphate. PANC-1 and HepG2 cells pro-treated by 5 μg/ml polybrene were infected with the lentivirus and stably infected cells were selected in cell culture medium containing 4 μg/ml puromycin (Sigma-Aldrich). […]
Western blotting assay was performed with cell lysates collected from stably transfected cells. Total protein concentrations were measured with the bicinchoninic assay (BCA). The sample proteins (20μg for each lane) were analyzed first in 12% SDS-PAGE and then transferred onto polyvinylidine difuorides membranes. […] The chemiluminescent data were collected and grayscale values were evaluated with Image J.

PANC-1 cells [2] = experiment: RTCA matrigel invasion assay; assay type: cell-based; details: KLK7 silenced PANC-1 cells, compared to BC and NC groups
Experimental: as §3, §2

“5′-GCACUGAGUUAAUUAACUGUGUUUCAAGAGAACACAGUUAAUUAACUCAGUGCUU-3′ (expressed or natural sequence) [LV-hKLK7-shRNA-4, PANC-1 cells infected with it are named KD4]” was tested. Which “Decrease of migration rate” value (PANC-1 cells [1]) did it give?
Its value is “about 85%”.

And the “Effect on invasion of HepG2 cells” value (HepG2 cells)?
Its value is “did not affect”.

And the “Effect on migration of HepG2 cells” value (HepG2 cells)?
Its value is “did not affect”.

What about the “Decrease of KLK7 expression” value (KLK7) of the same substance?
Its value is “around 90%”.

What about the Invasion capacity (PANC-1 cells [2]) of the same substance?
Its Invasion capacity is “almost fully inhibited”.
